Results reported in article PMC11089505, “Structural Elucidation and Antiviral Activity of Covalent Cathepsin L Inhibitors” (Journal of Medicinal Chemistry, 2024).
Values joined by “and” are separate entries in the source; they are usually repeats but may differ in a detail not shown here. Equal entries are not always repeated. Where two headings read alike, the source gives them in different places.

Legend:
[1] = test system: SARS-CoV-2-GFP in Vero E6 cells; test: microbe, parasite or virus in culture; format: cell-based
CatL [2] = target: T1, CatL (Homo sapiens, UniProt P07711, T223A); test: NanoDSF, thermal stability of CatL; format: binding
T1 construct: made in house; host or cells: Komagataella pastoris strain GS115
T1 sequence (P07711 114-333 T223A): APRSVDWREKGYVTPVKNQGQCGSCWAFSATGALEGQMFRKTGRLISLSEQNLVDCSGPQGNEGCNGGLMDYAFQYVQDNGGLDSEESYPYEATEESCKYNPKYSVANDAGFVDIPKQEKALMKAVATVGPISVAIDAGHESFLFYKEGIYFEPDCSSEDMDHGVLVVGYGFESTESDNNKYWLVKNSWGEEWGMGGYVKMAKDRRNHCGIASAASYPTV

SARS-CoV-2 Mpro = SARS-CoV-2 Mpro (Severe acute respiratory syndrome coronavirus 2, UniProt P0DTD1); format: binding
bovine serum albumin = target: T2, bovine serum albumin (Bos taurus, UniProt P02769); format: binding
T2 construct: purchased Merck, Germany
T2 sequence (P02769 25-607): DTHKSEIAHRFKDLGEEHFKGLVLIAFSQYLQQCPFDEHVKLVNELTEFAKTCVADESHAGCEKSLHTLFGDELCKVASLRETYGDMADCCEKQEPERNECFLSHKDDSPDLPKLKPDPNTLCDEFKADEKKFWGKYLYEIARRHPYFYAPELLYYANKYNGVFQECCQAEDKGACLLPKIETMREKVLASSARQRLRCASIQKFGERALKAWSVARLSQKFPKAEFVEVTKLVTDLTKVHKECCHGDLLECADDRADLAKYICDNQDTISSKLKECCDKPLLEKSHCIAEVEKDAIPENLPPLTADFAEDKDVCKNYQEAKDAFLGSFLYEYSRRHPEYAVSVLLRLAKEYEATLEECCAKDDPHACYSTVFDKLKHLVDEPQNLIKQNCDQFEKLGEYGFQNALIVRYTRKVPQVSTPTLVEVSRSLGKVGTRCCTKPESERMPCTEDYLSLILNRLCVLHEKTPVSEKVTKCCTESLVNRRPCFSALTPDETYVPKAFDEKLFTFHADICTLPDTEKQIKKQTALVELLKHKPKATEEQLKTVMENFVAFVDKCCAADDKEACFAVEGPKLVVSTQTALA

CatL [3] = target: T1, CatL; test: CatL inhibition assay (Ki), substrate Z-RR-AMC; format: biochemical
In short: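 Buffer: 50 mM sodium acetate pH 4.0, 50 mM NaCl, 0.1% PEG 6000, 5 mM DTT; epoxide inhibitors separately in 50 mM sodium phosphate pH 6.0 with same additives.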

CatL [4] = details: Table S1, SI reference list; cited from earlier work
[5] = test system: SARS-CoV-2 wild-type SA-WA1/2020; design: method as in PMID 32541865; details: Vero cells, read-out: half-maximal effective concentration; cited from earlier work
Vero cells = test system: Vero cells; design: method as in PMID 32541865; details: another assay using Vero cells; cited from earlier work
[6] = in DMSO; compound supply and quality parameters, supplier named in Table S4; cited from earlier work
[7] = Cell viability assay (CellTiter-Blue); details: chlorocebus sabaeus

## CCCC(NC(=O)C(CC(C)C)NC(=O)OCc1ccccc1)C(=O)C(=O)NCc1ccccn1 (stereo not shown) [CI-XII, Benzyl N-[1-[[1.2-dioxo-1-(pyridin-2-ylmethylamino)hexan-3-yl]amino]-4-methyl-1-oxopentan-2-yl]carbamate]
[1]; Severe acute respiratory syndrome coronavirus 2, Vero C1008, 24 h, read-out: EC50 (24 h)
  EC50: 6.4 nM
[1]; Severe acute respiratory syndrome coronavirus 2, Vero C1008, 24 h, read-out: EC50 (after 24 h)
  EC50: 6.37 nM
[1]; Severe acute respiratory syndrome coronavirus 2, Vero C1008, 48 h, read-out: EC50 (after 48 h)
  EC50: 146 nM
[1]; read-out: EC50 (24 h)
  EC50: < 10 nM
CatL [2]
  2:1, Tm average (CatL): 81.6 °C
  20:1, Tm average (CatL): 81.3 °C
  ΔTm [K] for CatL, 2:1 ratio: 18.5 ± 0.4 K
CatL [2]; pH 5
  ΔTm (for CatL), 2:1 compound to protein mixing ratio: 18,5 ± 0,4 °C and 18.5 °C
  ΔTm (for CatL), 20:1 compound to protein mixing ratio: 18,2 ± 0,2 °C and 18.2 °C
SARS-CoV-2 Mpro; 2:1 compound to protein
  2:1, Tm average (Mpro): 66.7 °C
SARS-CoV-2 Mpro; pH 7.5
  ΔTm (for Mpro), 2:1 compound to protein mixing ratio: 11,7 ± 1,7 °C and 11.7 °C
Bovine serum albumin
  Tm of bovine serum albumin in the presence of compound: 333.4 ± 0.8 K
CatL [3]; CI-XII 0.055 uM
  Residual activity (Vi/V0): 0.9785 and 0.9376
CatL [3]; CI-XII 0.091 uM
  Residual activity (Vi/V0): 0.9548 and 0.9431
CatL [3]; CI-XII 0.152 uM
  Residual activity (Vi/V0): 0.9354 and 0.8807
CatL [3]; CI-XII 0.254 uM
  Residual activity (Vi/V0): 0.873 and 0.9321
CatL [3]; CI-XII 0.423 uM
  Residual activity (Vi/V0): 0.8656 and 0.8369
CatL [3]; CI-XII 0.705 uM
  Residual activity (Vi/V0): 0.7709 and 0.7656
CatL [3]; CI-XII 1.176 uM
  Residual activity (Vi/V0): 0.6641 and 0.6442
CatL [3]; CI-XII 1.960 uM
  Residual activity (Vi/V0): 0.5112 and 0.4696
CatL [3]; CI-XII 3.266 uM
  Residual activity (Vi/V0): 0.3345 and 0.322
CatL [3]; CI-XII 5.443 uM
  Residual activity (Vi/V0): 0.1956 and 0.1842
CatL [3]; CI-XII 9.072 uM
  Residual activity (Vi/V0): 0.1094 and 0.09936
CatL [3]; CI-XII 15.120 uM
  Residual activity (Vi/V0): 0.06322 and 0.05321
CatL [3]; CI-XII 25.200 uM
  Residual activity (Vi/V0): 0.03696 and 0.03366
CatL [3]; CI-XII 42.000 uM
  Residual activity (Vi/V0): 0.01939 and 0.02113
CatL [3]; CI-XII 70.000 uM
  Residual activity (Vi/V0): 0.01108 and 0.01542
CatL [3]; CatL Ki relative to 13b
  fold lower Ki than 13b: ~500 fold
CatL [3]; Ki, CatL, Z-RR-AMC, pH 4.0, 37 °C
  Ki: 0.64 nM
CatL [3]; read-out: Residual activity (Vi/V0), CI-XII 0.055 uM
  remaining activity at 0.055 µM: 101%
CatL [3]; read-out: Residual activity (Vi/V0), CI-XII 0.091 uM
  remaining activity at 0.091 µM: 100%
CatL [3]; read-out: Residual activity (Vi/V0), CI-XII 0.152 uM
  remaining activity at 0.152 µM: 102%
CatL [3]; read-out: Residual activity (Vi/V0), CI-XII 0.254 uM
  remaining activity at 0.254 µM: 94.7%
CatL [3]; read-out: Residual activity (Vi/V0), CI-XII 0.423 uM
  remaining activity at 0.423 µM: 84.5%
CatL [3]; read-out: Residual activity (Vi/V0), CI-XII 0.705 uM
  remaining activity at 0.705 µM: 75%
CatL [3]; read-out: Residual activity (Vi/V0), CI-XII 1.176 uM
  remaining activity at 1.176 µM: 65.7%
CatL [3]; read-out: Residual activity (Vi/V0), CI-XII 1.960 uM
  remaining activity at 1.96 µM: 52.2%
CatL [3]; read-out: Residual activity (Vi/V0), CI-XII 3.266 uM
  remaining activity at 3.266 µM: 34.9%
CatL [3]; read-out: Residual activity (Vi/V0), CI-XII 5.443 uM
  remaining activity at 5.443 µM: 17.4%
CatL [3]; read-out: Residual activity (Vi/V0), CI-XII 9.072 uM
  remaining activity at 9.072 µM: 9.65%
CatL [3]; read-out: Residual activity (Vi/V0), CI-XII 15.120 uM
  remaining activity at 15.12 µM: 5.77%
CatL [3]; read-out: Residual activity (Vi/V0), CI-XII 25.200 uM
  remaining activity at 25.2 µM: 3.2%
CatL [3]; read-out: Residual activity (Vi/V0), CI-XII 42.000 uM
  remaining activity at 42 µM: 1.92%
CatL [3]; read-out: Residual activity (Vi/V0), CI-XII 70.000 uM
  remaining activity at 70 µM: 1.07%
CatL [4]
  IC50: 1.6 nM
[5]
  EC50: < 1000 nM
Vero cells
  CC50: > 50 µM
[6]
  Solvent (max. solubility): 16 mg/mL
[7]
  CC50 at 48 h: > 10 µM
